Measured values: ChEMBL document CHEMBL3272278, “Electronic factors in the structure-activity relationship of some 1,4-benzodiazepin-2-ones” (1977)
Calls of active or inactive are those of the source. The calls are words filed in the database; no cut-off is given here.

Columns and labels:
[1] = organism: Mus musculus; assay: Muscle relaxant activity in mouse; assay type: functional
[2] = organism: Mus musculus; assay: Sedative activity in mouse; assay type: functional
[3] = organism: Mus musculus; assay: Anticonvulsion activity in mouse assessed as protection against pentylenetetrazole-induced convulsion; assay type: functional
[4] = organism: Mus musculus; assay: Taming activity in mouse assessed as suppression of electrical current-induced aggressive behavior by foot-shock test; assay type: functional
[5] = organism: Felis catus; assay: Sedative activity in cat; assay type: functional, organism-based
[6] = organism: Felis catus; assay: Muscle relaxant activity in cat suspended by scruff of neck assessed as relaxation of body and hind legs; assay type: functional

| SMILES | log(1/ED50) [1] | log(1/ED50) [2] | Activity [3] | log(1/MED) [4] | Activity [5] | Activity [6] | log(1/ED50) [3] | log(1/MED) [6] | ED50 ([4]; Mus musculus) | Activity [4] | Activity [1] | Activity [2] |
| --- | --- | --- | --- | --- | --- | --- | --- | --- | --- | --- | --- | --- |
| O=C1CN=C(c2ccccc2)c2ccccc2N1 [RO-052921] | 0.1968 | 0.1968 | inactive | 0.3729 | inactive | inactive | – | – | – | – | – | – |
| O=C1CN=C(c2ccccc2C(F)(F)F)c2cc(C(F)(F)F)ccc2N1 | 1.0934 | 1.0934 | – | 1.2695 | – | – | 1.9685 | 2.8716 | – | – | – | – |
| O=C1CN=C(c2cccc(F)c2)c2cc(Cl)ccc2N1 | 0.159 | 0.159 | – | 0.858 | – | – | 1.8368 | 2.159 | – | – | – | – |
| CN1C(=O)CN=C(c2ccccc2C(F)(F)F)c2cc([N+](=O)[O-])ccc21 | 0.8609 | 0.8609 | – | 1.8609 | – | – | 2.7148 | 3.5599 | – | – | – | – |
| O=C1CN=C(c2ccccc2Cl)c2cc(Cl)ccc2N1 [DELORAZEPAM] | 0.4842 | 0.4842 | – | 0.8821 | – | – | 2.8821 | 3.4842 | 2 mg/kg | – | – | – |
| CN1C(=O)CN=C(c2ccccc2F)c2cc(F)ccc21 | 0.1457 | 0.1457 | – | – | – | – | 0.3325 | 1.7574 | – | inactive | – | – |
| O=C1CN=C(c2ccccc2)c2cc(C(F)(F)F)ccc2N1 [RO-052904] | 1.4829 | 1.4829 | – | 1.4829 | – | – | 2.4829 | 3.4829 | – | – | – | – |
| O=C1CN=C(c2ccccc2)c2cc(Br)ccc2N1 | 1.1002 | 1.1002 | – | 1.1971 | – | – | 2.1971 | 2.7992 | – | – | – | – |
| O=C1CN=C(c2ccccc2)c2cc(F)ccc2N1 [RO-053061] | 0.2287 | 0.2287 | inactive | 0.4048 | – | – | – | 1.8028 | – | – | – | – |
| O=C1CN=C(c2ccccc2)c2cc(Cl)cc(Cl)c2N1 | 0.3081 | 0.3081 | – | – | – | – | 1.5651 | 2.1831 | – | inactive | – | – |
| O=C1CN=C(c2ccccc2Cl)c2cc([N+](=O)[O-])ccc2N1 [CLONAZEPAM] | – | – | – | 1.1979 | – | – | 3.2948 | 3.8 | – | – | inactive | inactive |
| O=C1CN=C(c2ccc(Cl)cc2Cl)c2cc(Cl)ccc2N1 | – | – | – | – | inactive | inactive | -0.3724 | – | – | inactive | inactive | inactive |
| CN1C(=O)CN=C(c2ccccc2Cl)c2cc(Cl)ccc21 | 0.9016 | 0.9016 | – | 1.5037 | – | – | 2.8804 | 3.5037 | – | – | – | – |
| CN(C)c1ccc2c(c1)C(c1ccccc1)=NCC(=O)N2C | 0.2908 | 0.2908 | – | 0.8648 | – | – | 1.6887 | 2.4669 | – | – | – | – |
| CN(C)c1ccc2c(c1)C(c1ccccc1)=NCC(=O)N2 | – | – | – | – | – | – | 0.8224 | 1.4456 | – | inactive | inactive | inactive |
| O=C1CN=C(c2ccccc2Br)c2cc(Cl)ccc2N1 | 0.8443 | 0.8443 | – | 1.8443 | – | – | 2.7651 | 4.0661 | – | – | – | – |
| Cc1ccccc1C1=NCC(=O)Nc2ccc(Cl)cc21 | 0.2779 | 0.2779 | – | 0.454 | – | – | 1.5675 | 2.755 | – | – | – | – |
| O=C1CN=C(c2ccc(F)cc2)c2cc(Cl)ccc2N1 | – | – | inactive | – | inactive | inactive | – | – | – | inactive | inactive | inactive |
| O=C1CN=C(c2ccccc2F)c2cc(Cl)ccc2N1 [N-DESALKYL-2-OXOQUAZEPAM] | 0.858 | 0.858 | – | 1.7611 | – | – | 3.4601 | 3.7611 | – | – | – | – |
